Patent US5527703A (Merck & Co., Inc., priority 1994, dated 1996)

Molecular target: T1, GluClβ (Caenorhabditis elegans, UniProt Q17328)
T1 construct: the full-length open reading frame of the GluCl cDNA encoding the GluClα (52,550 kDa) and GluClβ (49,900kDa) subunits; expressed in transfected cells; host or cells: Xenopus laevis oocytes injected with in vitro RNA
T1 sequence (Q17328 23-434): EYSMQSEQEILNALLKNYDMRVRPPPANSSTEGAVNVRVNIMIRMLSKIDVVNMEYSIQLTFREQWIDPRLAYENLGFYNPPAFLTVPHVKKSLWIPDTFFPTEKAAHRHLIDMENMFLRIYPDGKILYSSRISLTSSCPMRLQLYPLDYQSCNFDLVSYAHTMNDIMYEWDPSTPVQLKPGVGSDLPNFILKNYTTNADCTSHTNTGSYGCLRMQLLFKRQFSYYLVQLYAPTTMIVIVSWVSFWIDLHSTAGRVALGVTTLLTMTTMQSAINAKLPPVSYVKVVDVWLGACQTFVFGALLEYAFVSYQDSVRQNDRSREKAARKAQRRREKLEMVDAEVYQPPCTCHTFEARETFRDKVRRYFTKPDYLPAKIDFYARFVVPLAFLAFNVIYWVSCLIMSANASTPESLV
Assay: Modulation of glutamate-sensitive current by IVMPO4, GluClβ injected oocytes
Type: cell-based, C. elegans
Procedure: Xenopus laevis oocytes were prepared and injected using standard methods previously described and known in the art [Arena, J. P., Liu. K. K., Paress, P. S. & Cully. D. F. Mol. Pharmacol. 40, 368-374 (1991 ); Arena, J. P., Liu, K. K., Paress, P. S., Schaeffer, J. M. & Cully, D. F. Mol. Brain Res. 15, 339-348 (1992)]. Adult female Xenopus laevis were anesthetized with 0.17% tricaine methanesulfonate and the ovaries were surgically removed and placed in a dish consisting of (mM): NaCl 1 82.5, KCl 2. MgCl2 1, CaCl2 1.8, HEPES 5 adjusted to pH 7.5 with NaOH (OR-2). Ovarian lobes were broken open, rinsed several times, and gently shaken in OR-2 containing 0.2% collagenase (Sigma, Type 1A) for 2-5 hours. […]
Recordings were made at room temperature 2-10 days after injection. […] Data were acquired and analyzed using PCLAMP with a TL-1 interface (Axon Instruments, Foster City, Calif.). Membrane current at a holding potential of -80 mV was recorded. The amplitude of drug-sensitive current was determined by subtracting the holding current at -80 mV from the peak current obtained in the presence of drug. […] Current/voltage relationships (I/V) and reversal potentials (Erev) were determined using a 1-3 sec voltage ramp over the voltage range of -110 to +80 mV. […]

ivermectin-4-O-phosphate [IVMPO4]
reduction of glutamate-sensitive current (following IVMPO4 1 μM): 88±4% | potentiation of glutamate response (homomeric GluClβ channels): not potentiated
